Experimental data from patent US20170064954A1, “HERBICIDAL COMPOSITIONS CONTAINING 4-AMINO-3-CHLORO-6-(4-CHLORO-2-FLUORO-3-METHOXYPHENYL)PYRIDINE-2-CARBOXYLIC ACID OR A DERIVATIVE THEREOF, A TRIAZOLOPYRIMIDINE SULFONAMIDE HERBICIDE OR A DERIVATIVE THEREOF, AND A CELL MEMBRANE DISRUPTOR HERBICIDE OR A DERIVATIVE THEREOF” (Dow AgroSciences LLC, priority 2015, published 2017).
“And” between values parts separate entries of the source, which are not always exact repeats. Equal entries are not always repeated.

Legend:
Test in all cases: Field trial, post-emergence foliar application, visually rated % weed control
Format in all cases: in vivo
[1] = tested on: Conyza sumatrensis (Guernsey fleabane, ERISU)
Text: (§1) Treatments consisted of the methyl ester of 4-amino-3-chloro-6-(4-chloro-2-fluoro-3-methoxyphenyl)pyridine-2-carboxylic acid (Cmpd 1, halauxifen-methyl) and diclosulam in combination as GF-3220. The form of compound of formula (I) was applied on an acid equivalent basis, and diclosulam was applied on an active ingredient basis. Glufosinate-ammonium salt was applied as various commercial formulations containing 480 grams acid equivalent per liter (g ae/L). Saflufenacil was applied as a commercial formulation containing 700 grams per kilogram (g/kg). Paraquat was applied as a commercial formulation containing 200 g/L.
(§2) Field trials were conducted under standard field conditions. Plot sizes varied from 2-4 meters (m) wide by 2-5 m long. Treatments were applied with small plot backpack sprayers, using pressurized carbon dioxide (CO2) as propellant. Pressure varied from 22-40 pounds per square inch (PSI), with spray tips typically of a Flat Fan type applying water diluent at 100-150 liters per hectare (L/ha). Boom sizes varied from 2-4 m in width. Weed sizes varied, but all treatments were applied as post-emergence treatments to weeds from 2 leaf to 2 tiller growth stages varying from 2-15 inches in height. No additional adjuvant was mixed with the treatments applied in the field.
(§3) Results in Tables 1 to 7 are field trial results for foliar applied compositions. The values reported are percent (%) control visually rated. The predicted percent (%) weed control was determined using Colby's equation. • The compositions tested, application rates employed, plant species tested, and results are given in Tables 1 to 7. • The following abbreviations are used in Tables 1 to 7: • ERISS=Conyza species (fleabane, ERISS) • ERISU=Conyza sumatrensis (Guernsey fleabane) • EPHHL=Euphorbia heterophylla L. (wild poinsettia) • IAQGR=Ipomoea grandifolia (Corda-de-viola) • ERIBO=Conyza bonariensis (fleabane) • g ae/ha=grams acid equivalent per hectare • g ai/ha=grams active ingredient per hectare • Mean % weed control=observed value of percent (%) control rated visually • Predicted mean % weed control=expected value of percent (%) control as calculated by Colby's equation • Cmpd 1=methyl 4-amino-3-chloro-6-(4-chloro-2-fluoro-3-methoxyphenyl)pyridine-2-carboxylate, halauxifen-methyl, or ARYLEX®

[2] = tested on: Conyza bonariensis (fleabane, ERIBO); conditions: Table 7, ERIBO, 21DAA, Paraquat 200 g ai/ha
Text: as §1, §2, §3

[3] = tested on: Conyza species (fleabane, ERISS)
Text: as §1, §2, §3

[4] = tested on: Euphorbia heterophylla L. (wild poinsettia, EPHHL); conditions: Table 4, EPHHL
Text: as §1, §2, §3

[5] = tested on: Ipomoea grandifolia (Corda-de-viola, IAQGR); conditions: Table 5, IAQGR, Paraquat 300 g ai/ha
Text: as §1, §2, §3

SMILES: CP(=O)(O)CCC(N)C(=O)O (stereo not drawn) [Glufosinate ammonium]
- Mean % weed control ([1]; Table 1, ERISU, 17DAA, Glufosinate ammonium 366 g ai/ha): 58.75% and 71.25%
- Mean % weed control ([1]; Table 1, ERISU, 28DAA, Glufosinate ammonium 366 g ai/ha): 71.25%
- Mean % weed control ([1]; Table 1, ERISU, 43DAA, Glufosinate ammonium 366 g ai/ha): 78.75%

SMILES: C[n+]1ccc(-c2cc[n+](C)cc2)cc1 [Paraquat, 1,1′-dimethyl-4,4′-bipyridinediium]
- Mean % weed control [2]: 28.3%
- Mean % weed control ([3]; Table 3, ERISS, 17DAA, Paraquat 400 g ai/ha): 32.5% and 52.5%
- Mean % weed control ([3]; Table 3, ERISS, 28DAA, Paraquat 400 g ai/ha): 52.5% and 55%
- Mean % weed control ([3]; Table 3, ERISS, 43DAA, Paraquat 400 g ai/ha): 60% and 65%
- Mean % weed control ([1]; Table 6, ERISU, 13DAA, Paraquat 100 g ai/ha): 26.3%
- Mean % weed control ([1]; Table 6, ERISU, 13DAA, Paraquat 200 g ai/ha): 40%
- Mean % weed control ([1]; Table 6, ERISU, 22DAA, Paraquat 100 g ai/ha): 41.3% and 41.1%
- Mean % weed control ([1]; Table 6, ERISU, 22DAA, Paraquat 200 g ai/ha): 56.3%
- Mean % weed control ([1]; Table 6, ERISU, 28DAA, Paraquat 100 g ai/ha): 47.5%
- Mean % weed control ([1]; Table 6, ERISU, 28DAA, Paraquat 200 g ai/ha): 61.3%
- Mean % weed control ([4]; 14DAA, Paraquat 300 g ai/ha): 81.8%
- Mean % weed control ([4]; 21DAA, Paraquat 100 g ai/ha): 56%
- Mean % weed control ([4]; 21DAA, Paraquat 300 g ai/ha): 82.8%
- Mean % weed control ([4]; 30DAA, Paraquat 100 g ai/ha): 48.3%
- Mean % weed control ([4]; 30DAA, Paraquat 300 g ai/ha): 81.8%
- Mean % weed control ([5]; 14DAA): 54.3%
- Mean % weed control ([5]; 21DAA): 45%
- Mean % weed control ([5]; 30DAA): 39.8%

SMILES: CC(C)N(C)S(=O)(=O)NC(=O)c1cc(-n2c(=O)cc(C(F)(F)F)n(C)c2=O)c(F)cc1Cl [Saflufenacil, 2-chloro-5-[3,6-dihydro-3-methyl-2,6-dioxo-4-(trifluoromethyl)-1(2H)-pyrimidinyl]-4-fluoro-N-[[methyl(1-methylethyl)amino]sulfonyl]benzamide]
- Mean % weed control ([3]; Table 2, ERISS, 17DAA, Saflufenacil 49 g ai/ha): 52.5% and 66.3%
- Mean % weed control ([3]; Table 2, ERISS, 28DAA, Saflufenacil 49 g ai/ha): 66.3%
- Mean % weed control ([3]; Table 2, ERISS, 43DAA, Saflufenacil 49 g ai/ha): 77.5%
